Assay results as given in PubChem BioAssay AID743417 (Broad Institute, 2014).
Inconclusive results are not listed. Calls of active or inactive are those of the source.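 How the source made its calls: active means compounds lowering the luciferase signal with a fitted half-maximal dose at most twice their top valid dose (cut at about 30 µM in these data); inconclusive means flat fits with moderate signal loss, or poor fits; inactive means the rest.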

System: Clone20 osteoblast Shn3 3'UTR firefly luciferase, 24 h
Assay: Shn3 3'UTR reporter inhibitors, dose response, cell-based, Clone20 osteoblasts, luminescence, dry powder, set 2 (AID 743417)

SMILES	AC50
CC(C)c1ccc(Oc2cccc3c2S(=O)(=O)N(C2CCCC2)CC(COCc2ccccc2)O3)cc1 (stereo not given)	15.5 µM
C#CC(=O)N(c1ccc(OC)c(OC)c1)C(C(=O)NC1CCCC1)c1cccs1 (stereo not given)	3.32 µM
CC(CCc1ccccc1)NC(=O)COC(=O)c1ccc(S(C)(=O)=O)c([N+](=O)[O-])c1 (stereo not given)	3.34 µM
O=C1C=C(c2ccnc3cc(Cl)ccc23)C[C@@H](c2ccc3c(c2)OCO3)C1	1.36 µM
CC(C)n1c(/C=C/[C@@H](O)C[C@@H](O)CC(=O)O)c(-c2ccc(F)cc2)c2ccccc21	2.4 µM
C=C1C(=O)[C@@]23[C@H](O)C[C@@H]4C(C)(C)CC[C@H](O)[C@@]4(C)[C@@H]2CC[C@@H]1[C@H]3O	1.29 µM
COc1ccc(NS(=O)(=O)c2ccc(NC(=O)C(CCSC)NC(N)=O)cc2)cc1 (stereo not given)	> 70 µM (inactive)
CCOC(=O)c1cnc(-n2nc(C)cc2C)nc1NC1CCCCC1	3.01 µM
CCOc1cc(/C=C2\C(=O)ON=C2C)ccc1OCc1ccccc1	10.4 µM
CC(C)NCC(O)COc1cccc2ccccc12 (stereo not given)	23.6 µM
Cc1oc(-c2ccc(Cl)cc2)nc1CS(=O)CC(=O)NCCCN1CCN(Cc2ccccc2)CC1 (stereo not given)	2.52 µM
O=C(Nc1cccc(Cl)c1Cl)C1CC(=O)N(c2ccc(Br)cc2)C1 (stereo not given)	8.23 µM
COc1ccc(-c2noc(CCC(=O)NCCCN3CCC(Cc4ccccc4)CC3)n2)cc1	4.03 µM
COc1ccc(C(=O)NC2CCCc3c2cnn3-c2cccc(C)c2C)c(OC)n1 (stereo not given)	1.96 µM
Cc1nc(-n2[nH]c3c(c2=O)CCCC3)[nH]c(=O)c1Cc1ccccc1	4.44 µM
Nc1ncnc2c1c(-c1ccc(Oc3ccccc3)cc1)cn2C1CCCC1	0.658 µM
O=C(CSc1nnc(Cn2nnc3ccccc32)o1)N(Cc1ccc(Cl)cc1)c1ccccc1	2.29 µM
CC(C)Cc1ccc(C(C)C(=O)Nc2ccccc2O)cc1 (stereo not given)	1.89 µM
CSc1nnc(NC(=O)c2nc(S(=O)(=O)Cc3ccccc3F)ncc2Cl)s1	1.55 µM
COc1ccc2c(c1OC)C(=O)OC2Nc1nc(-c2ccccc2)cs1 (stereo not given)	4.7 µM
CSc1nnc(NC(=O)c2nc(S(=O)(=O)Cc3ccccc3)ncc2Cl)s1	1.35 µM
Cn1nc(C(C)(C)C)cc1C(=O)NCc1ccc2c(c1)OCO2	1.17 µM
Cc1ccc(-c2nc3cccnc3o2)cc1NC(=O)COc1ccc(C(C)(C)C)cc1	10.8 µM
Cc1ccccc1CS(=O)(=O)c1ncc(Cl)c(C(=O)Nc2ccc(F)cc2)n1	3 µM
Cc1ccc(Cl)cc1N1CCN(C(=O)C2CCC(=O)N(C3CCCCCC3)C2)CC1 (stereo not given)	3.14 µM

SMILES	AC50
Nc1nc(N)c2cc(S(=O)(=O)c3cccc(C(F)(F)F)c3)ccc2n1	5.22 µM
CCCOc1ccccc1C1CC(=O)Nc2cc3c(cc21)OCCO3 (stereo not given)	3.66 µM
C=C(C)C(=O)O[C@H]1C/C(C)=C\C(=O)/C=C(\C)[C@H](O)[C@@H]2OC(=O)C(=C)[C@@H]21	3.02 µM
COc1ccc(CNc2ncnc3sccc23)cc1OC	2.34 µM
Cc1ccc2[nH]c3c(N4CCN(Cc5ccccc5)CC4)ncnc3c2c1	4.18 µM
COc1ccc(C2=Nn3c([n+](C)c4ccccc43)SC2)cc1	1.16 µM
CNc1ccccc1C(C)(C)c1cc(-c2cccc(Br)c2)no1	2 µM
O=S(=O)(c1cccs1)N1CCN(CCOc2ccc(Cl)cc2)CC1	13.8 µM
CC1Cc2cc(S(=O)(=O)N3CCC(C(=O)N4CCN(c5ccccc5F)CC4)CC3)ccc2N1C(=O)C1CC1 (stereo not given)	1.65 µM
Cc1cc(Nc2cccc(Cl)c2)nc(NCc2ccccc2)n1	1.64 µM
CC(C)(C)c1cc(C(c2cccnc2)N2CCN(CCO)CC2)cc(C(C)(C)C)c1O (stereo not given)	1.7 µM
Cc1ccc(NC(=O)CSc2nn(-c3ccccc3)c(=S)s2)cc1S(=O)(=O)N(C)C	5.82 µM
C=C1C(=O)C23C(O)C1CCC2C12CCCC(C)(COC(C)=O)C1C(O)C3(O)OC2 (stereo not given)	0.771 µM
Cc1nn(C)c(C(=O)NCc2ccc(Cl)cc2)c1Cl	1.74 µM
COc1ccc(NS(=O)(=O)c2cccc(NC(=O)c3ccc(S(=O)(=O)N4CCCCCC4)cc3)c2)cc1	0.829 µM
CC(=O)N1CCCc2cc(S(=O)(=O)N3CCCC(C(=O)N4CCN(c5cccc(Cl)c5)CC4)C3)ccc21 (stereo not given)	1.9 µM
Cc1ccc(S(=O)(=O)Nc2ccc3ncccc3c2)cc1	2.2 µM
CC(=O)NC(c1ccc2ccccc2c1)c1ccc2cccnc2c1O (stereo not given)	0.422 µM
Cc1ccc([N+](=O)[O-])cc1NC(=O)Nc1cccc(F)c1	2.21 µM
C=CCC[C@H](Cc1ccc(F)cc1)C(=O)OC[C@@H](Cc1c[nH]c2ccccc12)NC(=O)[C@H](CC=C)CC(=O)N(CCO)Cc1ccccc1	8.66 µM
CN(C)CC(C(=O)Cc1ccccc1)c1ccccc1 (stereo not given)	7.81 µM
Cc1nn(Cc2noc(C(=O)NC3CCC(C)CC3)n2)c(C)c1Br (stereo not given)	3.28 µM
CC1CCN(Cc2ccc(-c3nnn(CC(=O)Nc4ccccc4Cl)n3)cc2)CC1	1.77 µM
COc1ccccc1N/C(N)=N/c1nc(CSc2ccc(C)cc2)cc(=O)[nH]1	2.95 µM
Cn1nnnc1Sc1ncnc2scc(Br)c12	6.51 µM

SMILES	AC50
CCS(=O)(=O)c1ccc2oc(SCC(=O)N3CCCCC3)nc2c1	> 70 µM (inactive)
Oc1ccc(-c2n[nH]c(C(F)(F)F)c2-c2ccccc2)c(O)c1	0.283 µM
O=c1c2ccccc2nc(/C=C/c2ccc([N+](=O)[O-])o2)n1-c1ccc(O)cc1	3.24 µM
CN(Cc1ccc(OC(F)F)cc1)C(=O)c1cccc(S(=O)(=O)N2CCN(Cc3ccccc3)CC2)c1	2.37 µM
C=CC[C@H](CC(=O)N(CCO)Cc1ccccc1)C(=O)NC[C@H](OC(=O)[C@@H](CC=C)Cc1ccc(F)cc1)c1ccccc1	10.7 µM
CCCNC(=O)c1nnsc1S(=O)(=O)c1ccc(Cl)cc1	3.63 µM
CSc1cccc(NS(=O)(=O)c2ccc3c(c2)CCN3C(C)=O)c1	1.49 µM
Cc1cc(Br)c(S(=O)(=O)NCc2ccncc2)cc1C	1.41 µM
CCOc1cc(/C=C2/C(=O)ON=C2C)ccc1OCc1ccccc1F	6.95 µM
N#Cc1ccc(NC(=O)Nc2ccc(Oc3ccc(NC(=O)Nc4ccc(C#N)cc4)cc3)cc2)cc1	2.68 µM
CCCCNc1c(-c2cccc(-c3ccc(OC)cc3)c2)nc2cc(C)ccn12	12 µM
COc1ccc(NS(=O)(=O)c2ccc(-c3cnc(C4CC4)o3)cc2)cc1OC	1.33 µM
CCCCCCN1C[C@@H](n2cc(-c3ccc(F)cc3)nn2)[C@H](O)C[C@@H]1c1ccc(Cl)cc1	12.5 µM
Cc1cccc(N2CCN(C(=O)CSCc3c(C)noc3C)CC2)c1C	2.41 µM
Nc1nc(Cl)cc(N2CCC(c3cc(-c4ccc(Cl)cc4)n[nH]3)CC2)n1	2.43 µM
O=C(c1n[nH]c(=O)c2ccccc12)N1CCN(C2c3ccccc3-c3ccccc32)CC1	7.69 µM
CCCC(=O)NC(c1cccs1)c1cc(Cl)c2cccnc2c1O (stereo not given)	3.16 µM
COc1ccc(CCNc2c(C)c(C)nc3ncnn23)cc1	0.565 µM
COc1ccc(OCC(=O)NNC(=S)NC(=O)c2ccc(Br)o2)cc1	5.27 µM
N#CC(c1ccc(Cl)cc1)c1ccc2c(C(F)(F)F)cc(C(F)(F)F)nc2n1 (stereo not given)	0.487 µM
CC(C)=CCC/C(C)=C/CNC(=O)C[C@H]1C[C@H](C(=O)N2CCOCC2)[C@@]2(C)c3[nH]c4cc(CCC(=O)N(C)C)ccc4c3CCN2C1=O	1.11 µM
Cc1cccc(CS(=O)(=O)c2ncc(Cl)c(C(=O)Nc3nnc(C(C)C)s3)n2)c1	1.62 µM
c1ccc(CNc2ncnc3ccccc23)cc1	1.5 µM
CN(Cc1ccc(OCC(O)CN2CCCCC2)cc1)Cc1ccnc2ccccc12 (stereo not given)	1.21 µM
Cc1cc(C(=O)COc2cccnc2[N+](=O)[O-])c(C)n1-c1ccccc1	34.8 µM
